Columns and labels:
[1] = test system: Human immunodeficiency virus 1; test: Selectivity ratio of IC50 for 32 week drug adapted HIV1 HXB-2D harboring reverse transcriptase K65R mutant gene to IC50 for HIV1 HXB-2D harboring reverse transcriptase K65R mutant gene; type: functional
[2] = test system: Human immunodeficiency virus 1; test: Selectivity ratio of IC50 for 17 week drug adapted HIV1 HXB-2D harboring reverse transcriptase S68S/G mutant gene to IC50 for HIV1 HXB-2D harboring reverse transcriptase K65R mutant gene; type: functional
[3] = test system: Human immunodeficiency virus 1; test: Selectivity ratio of IC50 for 8 week drug adapted HIV1 HXB-2D harboring reverse transcriptase K65R mutant gene to IC50 for HIV1 HXB-2D harboring reverse transcriptase K65R mutant gene; type: functional
[4] = test system: Human immunodeficiency virus 1; test: Selectivity ratio of IC50 for 38 week drug adapted HIV1 HXB-2D harboring reverse transcriptase S68S/G mutant gene to IC50 for HIV1 HXB-2D harboring reverse transcriptase K65R mutant gene; type: functional
[5] = test system: Human immunodeficiency virus 1; test: Selectivity ratio of IC50 for 17 week drug adapted HIV1 HXB-2D harboring reverse transcriptase D237N mutant gene to IC50 for HIV1 HXB-2D harboring wild type reverse transcriptase; type: functional
[6] = test system: Human immunodeficiency virus 1; test: Selectivity ratio of IC50 for 8 week drug adapted HIV1 HXB-2D harboring reverse transcriptase D237N mutant gene to IC50 for HIV1 HXB-2D harboring wild type reverse transcriptase; type: functional
[7] = test system: Human immunodeficiency virus 1; test: Selectivity ratio of IC50 for 32 week drug adapted HIV1 HXB-2D harboring wild type reverse transcriptase to IC50 for HIV1 HXB-2D harboring wild type reverse transcriptase; type: functional
[8] = test system: Human immunodeficiency virus 1; test: Selectivity ratio of IC50 for 38 week drug adapted HIV1 HXB-2D harboring reverse transcriptase I50T/II, D237N/D mutant gene to IC50 for HIV1 HXB-2D harboring wild type reverse transcriptase; type: functional
[9] = test system: Human immunodeficiency virus 1; test: Selectivity ratio of IC50 for 48 week drug adapted HIV1 HXB-2D harboring reverse transcriptase M184V mutant gene to IC50 for HIV1 HXB-2D harboring wild type reverse transcriptase; type: functional
[10] = test system: Human immunodeficiency virus 1; test: Selectivity ratio of IC50 for 51 week drug adapted HIV1 HXB-2D harboring reverse transcriptase M184V, K65R mutant gene to IC50 for HIV1 HXB-2D harboring wild type reverse transcriptase; type: functional
[11] = test system: Human immunodeficiency virus 1; test: Selectivity ratio of IC50 for 51 week drug adapted HIV1 HXB-2D harboring reverse transcriptase M184V/M, K65R mutant gene to IC50 for HIV1 HXB-2D harboring wild type reverse transcriptase; type: functional
[12] = test system: Human immunodeficiency virus 1; test: Selectivity ratio of IC50 for 8 week drug adapted HIV1 HXB-2D harboring reverse transcriptase M184V, M41L, T215Y mutant gene to IC50 for HIV1 HXB-2D harboring reverse transcriptase M184V, M41L, T215Y mutant gene; type: functional
[13] = test system: Human immunodeficiency virus 1; test: Selectivity ratio of IC50 for 20 week drug adapted HIV1 HXB-2D harboring reverse transcriptase M184V, M41L, T215Y mutant gene to IC50 for HIV1 HXB-2D harboring reverse transcriptase M184V, M41L, T215Y mutant gene; type: functional
[14] = test system: Human immunodeficiency virus 1; test: Selectivity ratio of IC50 for 28 week drug adapted HIV1 HXB-2D harboring reverse transcriptase M184V, M41L, T215Y mutant gene to IC50 for HIV1 HXB-2D harboring reverse transcriptase M184V, M41L, T215Y mutant gene; type: functional
[15] = test system: Human immunodeficiency virus 1; test: Selectivity ratio of IC50 for HIV1 HXB-2D harboring reverse transcriptase M184V, M41L and T215Y mutant gene to IC50 for wild type HIV1 HXB-2D infected in human cord blood mononuclear cells; type: functional
[16] = test system: Human immunodeficiency virus 1; test: Selectivity ratio of IC50 for HIV1 HXB-2D harboring reverse transcriptase K65R mutant gene to IC50 for wild type HIV1 HXB-2D infected in human cord blood mononuclear cells; type: functional
[17] = test system: Human immunodeficiency virus 1; test: Selectivity ratio of IC50 for HIV1 HXB-2D harboring reverse transcriptase M184V mutant gene to IC50 for wild type HIV1 HXB-2D infected in human cord blood mononuclear cells; type: functional
[18] = test system: Human immunodeficiency virus 1; test: Antiviral activity against HIV1 HXB-2D harboring reverse transcriptase M184V, M41L and T215Y mutant gene infected in human cord blood mononuclear cells; type: functional, organism-based; settings: Human immunodeficiency virus 1, HXB-2D
[19] = test system: Human immunodeficiency virus 1; test: Antiviral activity against HIV1 HXB-2D harboring reverse transcriptase K65R mutant gene infected in human cord blood mononuclear cells; type: functional, organism-based; settings: Human immunodeficiency virus 1, HXB-2D
[20] = test system: Human immunodeficiency virus 1; test: Antiviral activity against HIV1 HXB-2D harboring reverse transcriptase M184V mutant gene infected in human cord blood mononuclear cells; type: functional, organism-based; settings: Human immunodeficiency virus 1, HXB-2D
[21] = test system: Human immunodeficiency virus 1; test: Antiviral activity against wild type HIV1 HXB-2D infected in human cord blood mononuclear cells; type: functional, organism-based; settings: Human immunodeficiency virus 1, HXB-2D
[22] = test system: Human immunodeficiency virus 1; test: Selectivity ratio of IC50 for 38 week drug adapted HIV1 HXB-2D harboring reverse transcriptase V101I/V, D177N, E194G mutant gene to IC50 for HIV1 HXB-2D harboring reverse transcriptase M184V mutant gene; type: functional
[23] = test system: Human immunodeficiency virus 1; test: Selectivity ratio of IC50 for 32 week drug adapted HIV1 HXB-2D harboring reverse transcriptase V101I/V, D177N, E194G mutant gene to IC50 for HIV1 HXB-2D harboring reverse transcriptase M184V mutant gene; type: functional
[24] = test system: Human immunodeficiency virus 1; test: Selectivity ratio of IC50 for 8 week drug adapted HIV1 HXB-2D harboring reverse transcriptase F87L/F mutant gene to IC50 for HIV1 HXB-2D harboring reverse transcriptase M184V mutant gene; type: functional
[25] = test system: Human immunodeficiency virus 1; test: Selectivity ratio of IC50 for 17 week drug adapted HIV1 HXB-2D harboring reverse transcriptase D177N/D, E194E/G mutant gene to IC50 for HIV1 HXB-2D harboring reverse transcriptase M184V mutant gene; type: functional

Which “fold change (FC)” value [1] does the source give for `Nc1ccn([C@H]2CO[C@@H](CO)S2)c(=O)n1` [APRICITABINE] here?
Its value is 2.5.

What about the “fold change (FC)” value [2] of the same molecule?
The value was 0.5.

And the “fold change (FC)” value [3]?
Its value is 0.5.

And the “fold change (FC)” value [4]?
Its value is 3.

And the “fold change (FC)” value [5]?
Its value is 1.3.

What about the “fold change (FC)” value [6] of the same molecule?
The value was 4.

And the “fold change (FC)” value [7]?
The value was 4.

And the “fold change (FC)” value [8]?
Its value is 8.

And the “fold change (FC)” value [9]?
Its value is 8.

And the “fold change (FC)” value [10]?
The value was 8.

What about the “fold change (FC)” value [11] of the same molecule?
Its value is 13.3.

And the “fold change (FC)” value [12]?
The value was 0.7.

What about the “fold change (FC)” value [13] of the same molecule?
Its value is 3.7.

What about the “fold change (FC)” value [14] of the same molecule?
The value was 3.7.

What about the “fold change (FC)” value [15] of the same molecule?
The value was 1.77.

And the “fold change (FC)” value [16]?
The value was 2.69.

What about the “fold change (FC)” value [17] of the same molecule?
The value was 2.37.

And the IC50 [18]?
The IC50 was 13.4 µM.

And the IC50 [19]?
Its IC50 is 20.3 µM.

What about the IC50 [20] of the same molecule?
Its IC50 is 17.9 µM.

What about the IC50 [21] of the same molecule?
The IC50 was 7.54 µM.

And the “fold change (FC)” value [22]?
Its value is 3.4.

And the “fold change (FC)” value [23]?
Its value is 3.4.

And the “fold change (FC)” value [24]?
Its value is 1.7.

And the “fold change (FC)” value [25]?
Its value is 1.1.
